Some test systems named below: Pseudomonas aeruginosa; Acinetobacter baumannii; Enterococcus gallinarum; Enterococcus faecalis; Raoultella terrigena; Serratia marcescens; Klebsiella pneumoniae; Nocardia asteroides; Bacillus anthracis; Escherichia coli; Staphylococcus aureus; Bacillus cereus.
Holding throughout (experiment): ≥ marks a high value that may be exact or a test limit, other limits are often not marked, values filed in µg/mL are converted to µM
For test [1], the system named is Pseudomonas aeruginosa ATCC 9027.
Test [2] deals with Escherichia coli ATCC 8739.
Test [3] deals with Bacillus subtilis ATCC 9372.
The subject of test [4] is Proteus vulgaris NCTC 4635.
In test [5] the test system is Staphylococcus aureus ATCC 6538.
In test [6] the test system is Escherichia coli NCTC 10418.
Test [7] has as its system Staphylococcus aureus S015.
Test [8] relates to Candida albicans NCPF 1467.
For test [9], the system named is Staphylococcus aureus NCTC 10788.
For test [10], the system named is Staphylococcus aureus ATCC 33591.
Test [11] deals with Enterococcus faecalis ATCC 29212.
Test [12] concerns Staphylococcus aureus ATCC 2592.
Test [13] concerns Escherichia coli ATCC 25922.
Test [14] relates to Candida albicans ATCC 18804.
Test [15] relates to Aggregatibacter actinomycetemcomitans ATCC 29522.
Test [16] deals with Trichosporon beigelii KCTC 7251.
Test [17] has as its system Fusarium oxysporum KCTC 6084.
Test [18] relates to Pseudomonas aeruginosa KCTC 1637.
The test system of test [19] is Bacillus subtilis KCTC 3068.
In test [20] the test system is Serratia marcescens KCTC 1299.
Test [21] relates to Salmonella typhimurium KCTC 1926.
The subject of test [22] is Aspergillus flavus KCTC 7375.
For test [23], the system named is Escherichia coli KCTC 1682.
Test [24] relates to Staphylococcus aureus KCTC 1621.
The test system of test [25] is Streptococcus pyogenes KCTC 3096.
The subject of test [26] is Candida albicans KCTC 7121.

Converted amounts (≈) assume the structure as drawn.

As to `CSCC[C@H](NC(=O)[C@H](C)NC(C)=O)C(=O)N[C@H](C(=O)NCC(=O)N[C@H](C(=O)O)[C@@H](C)O)C(C)C` [AMVGT], the MIC against Pseudomonas aeruginosa is 26.3 µM (≈ 13.7 µg/mL); with Acinetobacter baumannii, 26.3 µM (≈ 13.7 µg/mL); against Enterococcus gallinarum, 26.3 µM (≈ 13.7 µg/mL); with Enterococcus faecalis, at least 53.8 µM; with Raoultella terrigena it was 26.3 µM (≈ 13.7 µg/mL).

For the compound `CC[C@H](C)[C@H](NC(=O)[C@@H](NC(=O)[C@H](CO)NC(=O)[C@H](C)NC(=O)[C@@H](NC(=O)[C@H](CCCCN)NC(=O)[C@H](CCCCN)NC(=O)[C@@H](NC(=O)[C@@H](NC(=O)[C@@H](N)CC(=O)O)C(C)C)[C@@H](C)CC)C(C)C)C(C)C)C(=O)NCC(=O)O` [DVIKKVASVIG], the MIC is above 908 µM in [1]; at least 908 µM in test [2]; at least 908 µM in [3]; at least 908 µM in test [4]; above 908 µM in [5].

On to `CC[C@H](C)[C@H](NC(=O)[C@H](CC(C)C)NC(=O)CNC(=O)[C@@H]1CCCN1C(=O)[C@@H](NC(=O)[C@H](CCSC)NC(=O)CNC(=O)[C@H](CC(C)C)NC(=O)[C@@H](N)Cc1ccccc1)[C@@H](C)CC)C(=O)NCC(=O)NCC(=O)N[C@@H](CC(C)C)C(=O)N[C@H](C(=O)N[C@@H](CO)C(=O)N[C@@H](C)C(=O)N[C@@H](Cc1ccccc1)C(=O)N[C@@H](CCCCN)C(=O)O)[C@@H](C)CC` [FLGMIPGLIGGLISAFK], for which the MIC is at least 320 µM in test [6]; 9.98 µM (≈ 17.3 µg/mL) in test [7]; 10 µM (≈ 17.3 µg/mL) in test [8]; 5 µM (≈ 8.67 µg/mL) in [9]; 9.98 µM (≈ 17.3 µg/mL) in test [10]; 39.9 µM (≈ 69.2 µg/mL) in test [11].

On to `CC[C@H](C)[C@@H]1NC(=O)[C@H](CCCCN)NC(=O)[C@@H](NC(=O)[C@H](CCSC)NC(=O)[C@@H](NC(=O)[C@H](CC(C)C)NC(=O)[C@@H]2CCCN2C(=O)[C@H](CC(C)C)NC(=O)[C@@H](NC(=O)[C@@H](N)Cc2ccccc2)C(C)C)C(C)C)CSSC[C@@H](C(=O)O)NC(=O)[C@H](CCCCN)NC(=O)[C@H](CCCN=C(N)N)NC(=O)[C@H](CC(C)C)NC1=O` [FVLPLVMCKILRKC], for which the MIC was at least 60.1 µM in the test with Serratia marcescens; above 60.1 µM against Klebsiella pneumoniae; 5.64 µM (≈ 9.37 µg/mL) in test [12]; above 60.1 µM in [13]; 5.64 µM (≈ 9.37 µg/mL) in the test on Nocardia asteroides.

On to `CC[C@H](C)[C@H](NC(=O)[C@H](CC(=O)O)NC(=O)[C@H](CCCCN)NC(=O)[C@H](C)NC(=O)[C@H](C)NC(=O)CNC(=O)[C@H](CCCCN)NC(=O)[C@H](CC(C)C)NC(=O)[C@@H](NC(=O)[C@H](CC(=O)O)NC(=O)[C@@H](NC(=O)[C@@H](NC(=O)CN)C(C)C)C(C)C)[C@@H](C)CC)C(=O)N[C@@H](C)C(=O)NCC(=O)N[C@@H](Cc1cnc[nH]1)C(=O)N[C@@H](CC(C)C)C(=O)N[C@@H](C)C(=O)N[C@@H](CO)C(=O)N[C@@H](CCCCN)C(=O)N[C@H](C(=O)N[C@@H](CCSC)C(N)=O)C(C)C` [GVVDILKGAAKDIAGHLASKVM], for which the MIC was at least 234 µM in test [14], 114 µM (≈ 250 µg/mL) in test [13] and at least 222 µM in [15].

As for `CC[C@H](C)[C@H](NC(=O)[C@H](CCCCN)NC(=O)[C@H](CCCCN)NC(=O)[C@H](Cc1ccccc1)NC(=O)[C@H](CC(C)C)NC(=O)[C@H](CCCCN)NC(=O)[C@H](Cc1c[nH]c2ccccc12)NC(=O)[C@H](CCCCN)NC(=O)[C@@H]1CCCN1C(=O)[C@H](Cc1ccccc1)NC(=O)[C@H](CCCCN)NC(=O)[C@H](CCCCN)NC(=O)[C@H](C)NC(=O)[C@H](CC(C)C)NC(=O)[C@H](Cc1cnc[nH]1)NC(=O)[C@H](CC(C)C)NC(=O)[C@H](Cc1ccccc1)NC(=O)[C@@H](N)CCCCN)C(N)=O` [KFLHLAKKFPKWKLFKKI], the MIC in test [16] stood at 12.5 µM (≈ 28.7 µg/mL); in [17], 25 µM (≈ 57.5 µg/mL); in test [18], 1.56 µM (≈ 3.59 µg/mL); in test [19] it was 0.78 µM (≈ 1.79 µg/mL); in test [20], 3.13 µM (≈ 7.2 µg/mL); in test [21], 1.56 µM (≈ 3.59 µg/mL). For the same compound, the MIC in test [22] turned out to be 25 µM (≈ 57.5 µg/mL); in test [23], 3.13 µM (≈ 7.2 µg/mL); in test [24], 1.56 µM (≈ 3.59 µg/mL); in test [25], 3.13 µM (≈ 7.2 µg/mL); in [26], 12.5 µM (≈ 28.7 µg/mL).

In the case of `CC[C@H](C)[C@H](NC(=O)[C@H](Cc1ccccc1)NC(=O)[C@@H](NC(=O)[C@@H](N)CCCCN)C(C)C)C(=O)N[C@@H](C)C(=O)N[C@H](C(=O)N[C@@H](CC(C)C)C(=O)N[C@H](C(=O)N[C@H](C(=O)N[C@@H](CO)C(=O)N[C@@H](CO)C(=O)N[C@@H](Cc1ccccc1)C(=O)N[C@@H](CC(C)C)C(=O)N[C@@H](CC(C)C)C(=O)N[C@@H](C)C(=O)N[C@@H](CCCCN)C(=O)N1CCC[C@H]1C(=O)N1CCC[C@H]1C(=O)N[C@@H](CCCN=C(N)N)C(=O)N[C@H](C(=O)O)C(C)C)C(C)C)C(C)C)[C@@H](C)O` [KVFIATLVVSSFLLAKPPRV], the MIC was at least 117 µM in the test on Bacillus anthracis, above 117 µM against Escherichia coli, above 117 µM against Staphylococcus aureus and at least 117 µM against Bacillus cereus.

The values above are taken from DBAASP.
